BigSolDB 2.1

O=C1NC(=O)C(c2ccccc2)(c2ccccc2)N1
solubility (mole fraction)
Details	293.2 K	298.2 K	303.2 K	308.2 K	313.2 K
in n-propanol	0.00263	0.00304	0.00329	0.00358	0.00396
in water	1.29e-06	2.11e-06	2.42e-06	2.64e-06	2.94e-06
